Measurements reported in US20140243414A1, “PHARMACEUTICAL COMPOSITIONS OF CETP INHIBITORS” (Japan Tobacco Inc., priority 2003, published 2014).
Like-named read-outs stand apart in the source and are kept apart here.

What was measured:
[1] = Plasma pharmacokinetics of the active form of Compound I, single oral doses after standard breakfast, Japanese males (Example 3); type: in vivo, human; conditions: Examples 1-4
Protocol: (§1) Administration, dosing, and sampling schedules were commensurate with those described in Example 1. The tablets were prepared as described in Example 1.

CETP [2] = molecular target: T1, CETP (Homo sapiens, UniProt P11597); experiment: CETP activity change from pre-dose after single oral doses, Caucasian males (Example 5); type: in vivo; conditions: for change in vivo at 100 mg: 100 mg with food; for change in vivo at 100 mg / change in vivo at 300 mg / change in vivo at 600 mg / change in vivo at 900 mg / change in vivo at 1200 mg / change in vivo at 1500 mg / change in vivo at 1800 mg: read-out: Percent change from pre-dose in CETP activity (mean); for change in vivo at 300 mg: 300 mg with food; for Decrease in CETP activity relative to pre-dose: 6 hours after administration; for change in vivo at 600 mg: 600 mg with food; for change in vivo at 900 mg: 900 mg with food; for change in vivo at 1200 mg: 1200 mg with food; for change in vivo at 1500 mg: 1500 mg with food; for change in vivo at 1800 mg: 1800 mg with food
T1 construct: from tissue; host or cells: blood / plasma of human subjects dosed orally with Compound I
T1 sequence (P11597 18-493): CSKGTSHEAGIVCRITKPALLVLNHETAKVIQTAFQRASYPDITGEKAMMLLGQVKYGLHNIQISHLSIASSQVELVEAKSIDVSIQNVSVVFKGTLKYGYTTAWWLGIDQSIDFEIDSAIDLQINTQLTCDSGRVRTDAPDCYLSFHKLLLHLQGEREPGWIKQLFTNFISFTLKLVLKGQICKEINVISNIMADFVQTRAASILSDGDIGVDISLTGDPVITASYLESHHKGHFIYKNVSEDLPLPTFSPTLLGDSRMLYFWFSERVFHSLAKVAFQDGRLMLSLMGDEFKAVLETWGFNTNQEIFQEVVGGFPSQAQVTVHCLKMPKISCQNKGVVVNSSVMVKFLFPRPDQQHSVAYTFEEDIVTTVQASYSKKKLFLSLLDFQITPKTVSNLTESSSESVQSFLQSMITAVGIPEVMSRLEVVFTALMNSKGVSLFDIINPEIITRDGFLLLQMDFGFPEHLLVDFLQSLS
Protocol: Administration, dosing, and sampling schedules were substantially similar to those described in Example 1. The tablets were prepared as described in Example 1.
The procedure for determining CETP activity was substantially similar to the procedures described in Tollefson et al., Methods Enzymol., 129, 797-816 (1986), and Kato et al., J. Biol. Chem., 264, 4082-4087 (1989).
CETP activity and changes from baseline (pre-dose) were measured, and the resulting data is summarized in Table 6 as percentage change from baseline.

CETP [3] = molecular target: T1, CETP; experiment: Relative CETP activity after single oral doses, Japanese males (Example 7); type: in vivo; conditions: for response vs control in vivo at 100 mg: 100 mg with food; for response vs control in vivo at 100 mg / response vs control in vivo at 300 mg / response vs control in vivo at 600 mg / response vs control in vivo at 900 mg / response vs control in vivo at 1200 mg / response vs control in vivo at 1500 mg / response vs control in vivo at 1800 mg: read-out: Percent CETP activity relative to pre-dose; for response vs control in vivo at 300 mg: 300 mg with food; for response vs control in vivo at 600 mg: 600 mg with food; for response vs control in vivo at 900 mg: 900 mg with food; for response vs control in vivo at 1200 mg: 1200 mg with food; for response vs control in vivo at 1500 mg: 1500 mg with food; for response vs control in vivo at 1800 mg: 1800 mg with food
Protocol: as §1
Relative CETP activities (calculated as a percentage of baseline CETP activity) and standard deviations (SD) were measured, and the resulting data is summarized in Table 8.

Solubility in water = type: physicochemical

## CCC(CC)CC1(C(=O)Nc2ccccc2SC(=O)C(C)C)CCCCC1 [Compound I, S-[2-([[1-(2-ethylbutyl)cyclohexyl]carbonyl]amino)phenyl]2-methylpropanethioate]
[1]
  Bioavailability (as indicated by Cmax, AUC0-tz, AUC0-∞) in Oriental (especially Japanese) humans as compared to Caucasian humans: greater
CETP [2]; 1 h
  change in vivo at 100 mg: -2%
  change in vivo at 300 mg: 0%
  change in vivo at 600 mg: -3%
  change in vivo at 900 mg: -3%
  change in vivo at 1200 mg: -3%
  change in vivo at 1500 mg: -3%
  change in vivo at 1800 mg: -3%
CETP [2]; 2 h
  change in vivo at 100 mg: -2%
  change in vivo at 300 mg: -7%
  change in vivo at 600 mg: -12%
  change in vivo at 900 mg: -23%
  change in vivo at 1200 mg: -17%
  change in vivo at 1500 mg: -32%
  change in vivo at 1800 mg: -23%
CETP [2]; 4 h
  change in vivo at 100 mg: -5%
  change in vivo at 300 mg: -12%
  change in vivo at 600 mg: -29%
  change in vivo at 900 mg: -48%
  change in vivo at 1200 mg: -58%
  change in vivo at 1500 mg: -72%
  change in vivo at 1800 mg: -67%
CETP [2]; 6 h
  change in vivo at 100 mg: -7%
  change in vivo at 300 mg: -13%
  change in vivo at 600 mg: -36%
  change in vivo at 900 mg: -55%
  change in vivo at 1200 mg: -71%
  change in vivo at 1500 mg: -83%
  change in vivo at 1800 mg: -74%
CETP [2]; 8 h
  change in vivo at 100 mg: -6%
  change in vivo at 300 mg: -13%
  change in vivo at 600 mg: -36%
  change in vivo at 900 mg: -53%
  change in vivo at 1200 mg: -70%
  change in vivo at 1500 mg: -81%
  change in vivo at 1800 mg: -71%
CETP [2]; 24 h
  change in vivo at 100 mg: -1%
  change in vivo at 300 mg: -6%
  change in vivo at 600 mg: -21%
  change in vivo at 900 mg: -28%
  change in vivo at 1200 mg: -43%
  change in vivo at 1500 mg: -48%
  change in vivo at 1800 mg: -42%
CETP [2]; post-study
  change in vivo at 100 mg: -5%
  change in vivo at 300 mg: 2%
  change in vivo at 600 mg: -6%
  change in vivo at 900 mg: -5%
  change in vivo at 1200 mg: -4%
  change in vivo at 1500 mg: 0%
  change in vivo at 1800 mg: -5%
CETP [2]; 300 mg
  Decrease in CETP activity relative to pre-dose: 13%
CETP [2]; 600 mg
  Decrease in CETP activity relative to pre-dose: 36%
CETP [2]; 900 mg
  Decrease in CETP activity relative to pre-dose: 55%
CETP [3]; post-study
  response vs control in vivo at 100 mg: 99.2%
  response vs control in vivo at 300 mg: 96.1%
  response vs control in vivo at 600 mg: 103%
  response vs control in vivo at 900 mg: 95.1%
  response vs control in vivo at 1200 mg: 95.2%
  response vs control in vivo at 1500 mg: 96.9%
  response vs control in vivo at 1800 mg: 93%
CETP [3]; 300 mg, 6 hours after administration
  Decrease in CETP activity relative to pre-dose: about 19.5%
CETP [3]; 600 mg, 6 hours after administration
  Decrease in CETP activity relative to pre-dose: about 62%
CETP [3]; 900 mg, 4 hours after administration
  Decrease in CETP activity relative to pre-dose: about 76%
CETP [3]; 1 h, 1 h
  response vs control in vivo at 100 mg: 96.2%
  response vs control in vivo at 300 mg: 100%
  response vs control in vivo at 600 mg: 100%
  response vs control in vivo at 900 mg: 100%
  response vs control in vivo at 1200 mg: 94.2%
  response vs control in vivo at 1500 mg: 101%
  response vs control in vivo at 1800 mg: 85.3%
CETP [3]; 2 h, 2 h
  response vs control in vivo at 100 mg: 92%
  response vs control in vivo at 300 mg: 90.7%
  response vs control in vivo at 600 mg: 87.8%
  response vs control in vivo at 900 mg: 52.1%
  response vs control in vivo at 1200 mg: 54%
  response vs control in vivo at 1500 mg: 85.7%
  response vs control in vivo at 1800 mg: 15.6%
CETP [3]; 4 h, 4 h
  response vs control in vivo at 100 mg: 93.2%
  response vs control in vivo at 300 mg: 83.1%
  response vs control in vivo at 600 mg: 52.6%
  response vs control in vivo at 900 mg: ~24%
  response vs control in vivo at 1200 mg: 12.1%
  response vs control in vivo at 1500 mg: 13.3%
  response vs control in vivo at 1800 mg: 6%
CETP [3]; 6 h, 6 h
  response vs control in vivo at 100 mg: 90.4%
  response vs control in vivo at 300 mg: ~80.5%
  response vs control in vivo at 600 mg: ~38%
  response vs control in vivo at 900 mg: 24.1%
  response vs control in vivo at 1200 mg: 10.5%
  response vs control in vivo at 1500 mg: 10.6%
  response vs control in vivo at 1800 mg: 8.4%
CETP [3]; 8 h, 8 h
  response vs control in vivo at 100 mg: 90.4%
  response vs control in vivo at 300 mg: 80.6%
  response vs control in vivo at 600 mg: 39.1%
  response vs control in vivo at 900 mg: 29.8%
  response vs control in vivo at 1200 mg: 14.7%
  response vs control in vivo at 1500 mg: 15.4%
  response vs control in vivo at 1800 mg: 12.2%
CETP [3]; 24 h, 24 h
  response vs control in vivo at 100 mg: 99.2%
  response vs control in vivo at 300 mg: 88.8%
  response vs control in vivo at 600 mg: 65.5%
  response vs control in vivo at 900 mg: 60.5%
  response vs control in vivo at 1200 mg: 47.6%
  response vs control in vivo at 1500 mg: 53.7%
  response vs control in vivo at 1800 mg: 49.5%
Solubility in water
  solubility: < 0.1 µg/mL
